Laboratory results reported in patent publication EP4635500A1, “THERAPEUTIC AGENT FOR BACTERIAL INFECTION” (Sumitomo Pharma Co., Ltd., priority 2022, dated 2024).
≈ marks a conversion by molar mass, not a printed value. Like-named read-outs stand apart in the source and are kept apart here.

Experiments:
Type in all cases: cell-based
P. aeruginosa = test: MIC, broth microdilution, CDC/FDA Antibiotic Resistance Isolate Bank (Example 7, Tables 10, 15); conditions: Pseudomonas aeruginosa, read-out: MIC
Enterobacter cloacae = test: MIC, broth microdilution, standard strains and Japanese clinical isolates (Example 5, Table 4)
CRE and CPE strains = test: MIC, broth microdilution, standard strains and Japanese clinical isolates (Example 5, Table 4 continued; organism of each KUB strain not given)
Providencia rettgeri = test: MIC, broth microdilution, standard strains and Japanese clinical isolates (Example 5, Table 4); conditions: ATCCBAA2525; KUB4010 Providencia rettgeri ATCC BAA-2525, OXA-181
Klebsiella pneumoniae = test: as above
Escherichia coli = test: as above
[1] = test system: Metallo-β-lactamase producing strains (N = 27); test: MIC50/MIC90 for carbapenemase-producing isolates (Example 5, Table 6); conditions: metallo-β-lactamase-producing strains; combination: Compound A at a fixed concentration of 4 µg/mL; read-out: MIC90
Enterobacter hormaechei = test: MIC, broth microdilution, standard strains and Japanese clinical isolates (Example 5, Table 4); conditions: ATCCBAA2082; KUB4001 Enterobacter hormaechei ATCC BAA-2082, KPC-2

SMILES: CC(C)(O/N=C(\C(=O)N[C@@H]1C(=O)N2C(C(=O)[O-])=C(C[N+]3(CCNC(=O)c4ccc(O)c(O)c4Cl)CCCC3)CS[C@H]12)c1csc(N)n1)C(=O)O [Cefiderocol, cefiderocol]
- MIC (P. aeruginosa; P. aeruginosa KUB No. 5748, AR Bank # 352): 500 ng/mL (≈ 665 nM)
- MIC (P. aeruginosa; P. aeruginosa KUB No. 5749, AR Bank # 353): 1000 ng/mL (≈ 1330 nM)
- MIC (P. aeruginosa; P. aeruginosa KUB No. 5750, AR Bank # 354): 500 ng/mL (≈ 665 nM)
- MIC (P. aeruginosa; P. aeruginosa KUB No. 5751, AR Bank # 355): 250 ng/mL (≈ 332 nM)
- MIC (P. aeruginosa; P. aeruginosa KUB No. 5752, AR Bank # 356): 1000 ng/mL (≈ 1330 nM)
- MIC (P. aeruginosa; P. aeruginosa KUB No. 5753, AR Bank # 357): 4000 ng/mL (≈ 5320 nM)
- MIC (P. aeruginosa; P. aeruginosa KUB No. 5754, AR Bank # 358): 500 ng/mL (≈ 665 nM)
- MIC (P. aeruginosa; P. aeruginosa KUB No. 5755, AR Bank # 359): 250 ng/mL (≈ 332 nM)
- MIC (P. aeruginosa; P. aeruginosa KUB No. 5756, AR Bank # 360): 250 ng/mL (≈ 332 nM)
- MIC (P. aeruginosa; P. aeruginosa KUB No. 5785, AR Bank # 439): 500 ng/mL (≈ 665 nM)
- MIC (P. aeruginosa; P. aeruginosa KUB No. 5786, AR Bank # 440): 250 ng/mL (≈ 332 nM)
- MIC (P. aeruginosa; P. aeruginosa KUB No. 5787, AR Bank # 441): 1000 ng/mL (≈ 1330 nM)
- MIC (P. aeruginosa; P. aeruginosa KUB No. 5788, AR Bank # 443): 1000 ng/mL (≈ 1330 nM)
- MIC (P. aeruginosa; P. aeruginosa KUB No. 5789, AR Bank # 444): 500 ng/mL (≈ 665 nM)
- MIC (P. aeruginosa; P. aeruginosa KUB No. 5790, AR Bank # 445): 500 ng/mL (≈ 665 nM)
- MIC (P. aeruginosa; P. aeruginosa KUB No. 5793, AR Bank # 449): 500 ng/mL (≈ 665 nM)
- MIC (P. aeruginosa; P. aeruginosa KUB No. 5798, AR Bank # 455): 250 ng/mL (≈ 332 nM)
- MIC (P. aeruginosa; P. aeruginosa KUB No. 5799, AR Bank # 456): 250 ng/mL (≈ 332 nM)
- MIC (P. aeruginosa; P. aeruginosa KUB No. 5800, AR Bank # 457): 250 ng/mL (≈ 332 nM)
- MIC (P. aeruginosa; P. aeruginosa KUB No. 5801, AR Bank # 458): 2000 ng/mL (≈ 2660 nM)
- MIC (P. aeruginosa; P. aeruginosa KUB No. 5802, AR Bank # 459): 120 ng/mL (≈ 160 nM)
- MIC (P. aeruginosa; P. aeruginosa KUB No. 5804, AR Bank # 862): 500 ng/mL (≈ 665 nM)
- MIC (P. aeruginosa; P. aeruginosa KUB No. 5805, AR Bank # 863): 500 ng/mL (≈ 665 nM)
- MIC (P. aeruginosa; P. aeruginosa KUB No. 5806, AR Bank # 864): 120 ng/mL (≈ 160 nM)
- MIC (P. aeruginosa; P. aeruginosa KUB No. 5813, AR Bank # 508): 1 ng/mL (≈ 1.33 nM)
- MIC (P. aeruginosa; P. aeruginosa KUB No. 5814, AR Bank # 509): 0.5 ng/mL (≈ 0.665 nM)
- MIC (P. aeruginosa; P. aeruginosa KUB No. 5815, AR Bank # 510): ≤ 0.06 ng/mL
- MIC (P. aeruginosa; P. aeruginosa KUB No. 5816, AR Bank # 511): 0.25 ng/mL (≈ 0.332 nM)
- MIC (P. aeruginosa; P. aeruginosa KUB No. 5817, AR Bank # 512): 1 ng/mL (≈ 1.33 nM)
- MIC (P. aeruginosa; P. aeruginosa KUB No. 5818, AR Bank # 513): 0.25 ng/mL (≈ 0.332 nM)
- MIC (P. aeruginosa; P. aeruginosa KUB No. 5819, AR Bank # 514): 0.12 ng/mL (≈ 0.16 nM)
- MIC (P. aeruginosa; P. aeruginosa KUB No. 5820, AR Bank # 515): 1 ng/mL (≈ 1.33 nM)
- MIC (P. aeruginosa; P. aeruginosa KUB No. 5821, AR Bank # 516): 0.5 ng/mL (≈ 0.665 nM)
- MIC (P. aeruginosa; P. aeruginosa KUB No. 5823, AR Bank # 518): 0.25 ng/mL (≈ 0.332 nM)
- MIC (P. aeruginosa; P. aeruginosa KUB No. 5831, AR Bank # 526): 0.12 ng/mL (≈ 0.16 nM)
- MIC (P. aeruginosa; P. aeruginosa KUB No. 5832, AR Bank # 527): 0.25 ng/mL (≈ 0.332 nM)
- MIC (P. aeruginosa; P. aeruginosa KUB No. 5833, AR Bank # 528): 0.25 ng/mL (≈ 0.332 nM)
- MIC (P. aeruginosa; P. aeruginosa KUB No. 5834, AR Bank # 529): ≤ 0.06 ng/mL
- MIC (Enterobacter cloacae; ATCCBAA2341, KUB4002 Enterobacter cloacae ATCC BAA-2341, KPC-3): 500 ng/mL (≈ 665 nM)
- MIC (Enterobacter cloacae; ATCCBAA2468, KUB4006 Enterobacter cloacae ATCC BAA-2468, NDM-1): 1000 ng/mL (≈ 1330 nM)
- MIC (CRE and CPE strains; strain KUB3149, carbapenemase gene NDM-1, read-out: MIC): 2000 ng/mL (≈ 2660 nM)
- MIC (CRE and CPE strains; strain KUB3150, carbapenemase gene OXA-48, read-out: MIC): ≤ 60 ng/mL
- MIC (CRE and CPE strains; strain KUB3151, carbapenemase gene IMP-1, read-out: MIC): 1000 ng/mL (≈ 1330 nM)
- MIC (CRE and CPE strains; strain KUB3152, carbapenemase gene KPC-2, read-out: MIC): 2000 ng/mL (≈ 2660 nM)
- MIC (CRE and CPE strains; strain KUB3154, carbapenemase gene KPC-2, read-out: MIC): 4000 ng/mL (≈ 5320 nM)
- MIC (CRE and CPE strains; strain KUB3157, carbapenemase gene NDM-1): 8000 ng/mL (≈ 10600 nM)
- MIC (CRE and CPE strains; strain KUB3164, carbapenemase gene IMP-6): 120 ng/mL (≈ 160 nM)
- MIC (Providencia rettgeri): 2000 ng/mL (≈ 2660 nM)
- MIC (Klebsiella pneumoniae; ATCCBAA1898, KUB3996 Klebsiella pneumoniae ATCC BAA-1898, KPC-2): 2000 ng/mL (≈ 2660 nM)
- MIC (Klebsiella pneumoniae; ATCCBAA1899, KUB3997 Klebsiella pneumoniae ATCC BAA-1899, KPC-2): 2000 ng/mL (≈ 2660 nM)
- MIC (Klebsiella pneumoniae; ATCCBAA1900, KUB3998 Klebsiella pneumoniae ATCC BAA-1900, KPC-3): 250 ng/mL (≈ 332 nM)
- MIC (Klebsiella pneumoniae; ATCCBAA1904, KUB3999 Klebsiella pneumoniae ATCC BAA-1904, KPC-3): 1000 ng/mL (≈ 1330 nM)
- MIC (Klebsiella pneumoniae; ATCCBAA2078, KUB4000 Klebsiella pneumoniae ATCC BAA-2078, KPC-3): 2000 ng/mL (≈ 2660 nM)
- MIC (Klebsiella pneumoniae; ATCCBAA2146, KUB4011 Klebsiella pneumoniae ATCC BAA-2146, NDM-1): 2000 ng/mL (≈ 2660 nM)
- MIC (Klebsiella pneumoniae; ATCCBAA2342, KUB4003 Klebsiella pneumoniae ATCC BAA-2342, KPC-3): 500 ng/mL (≈ 665 nM)
- MIC (Klebsiella pneumoniae; ATCCBAA2343, KUB4004 Klebsiella pneumoniae ATCC BAA-2343, KPC-3): 250 ng/mL (≈ 332 nM)
- MIC (Klebsiella pneumoniae; ATCCBAA2472, KUB4008 Klebsiella pneumoniae subsp. Pneumoniae ATCC BAA-2472, NDM-1): 8000 ng/mL (≈ 10600 nM)
- MIC (Klebsiella pneumoniae; ATCCBAA2473, KUB4009 Klebsiella pneumoniae ATCC BAA-2473, NDM-1): 8000 ng/mL (≈ 10600 nM)
- MIC (Klebsiella pneumoniae; KUB3631 Klebsiella pneumoniae Clinical isolate, IMP-1): 2000 ng/mL (≈ 2660 nM)
- MIC (Klebsiella pneumoniae; KUB3633 Klebsiella pneumoniae Clinical isolate, IMP-6): 1000 ng/mL (≈ 1330 nM)
- MIC (Klebsiella pneumoniae; KUB3634 Klebsiella pneumoniae Clinical isolate, IMP-6): 2000 ng/mL (≈ 2660 nM)
- MIC (Escherichia coli; ATCCBAA2452, KUB4005 Escherichia coli ATCC BAA-2452, NDM-1): 500 ng/mL (≈ 665 nM)
- MIC (Escherichia coli; ATCCBAA2471, KUB4007 Escherichia coli ATCC BAA-2471, NDM-6): 4000 ng/mL (≈ 5320 nM)
- MIC90 [1]: 8000 ng/mL
- MIC (Enterobacter hormaechei): 2000 ng/mL (≈ 2660 nM)
